According to US9498478B2, “Spiro aminic compounds with NK1 antagonist activity” (Rottapharm Biotech Srl, priority 2011, dated 2016):

Target: T1, human NK1 receptor (Homo sapiens, UniProt P25103)
T1 construct: human NK1 receptor endogenously expressed in U373 cells; endogenous in cells; host or cells: U373 (human U373MG astrocytoma) cells
Test: Antagonist activity at the human NK1 receptor endogenously expressed in U373 cells, agonist-induced cytosolic Ca2+ mobilization (fluorimetric)
Assay type: cell-based
Settings: for Kb: co-logarithm of apparent dissociation constant by modified Cheng Prusoff equation, agonist 3 nM [Sar9,Met(O2)11]-SP, read-out: pKb NK1 (converted); for inhibition at 10 µM: U373 MG, percent inhibition of control response to 3 nM [Sar9,Met(O2)11]-SP at compound concentration 10 μM, read-out: NK1 % inh @10 μM
Procedure: Evaluation of the antagonist activity of compounds at the human NK1 receptor endogenously expressed in U373 cells was determined by measuring their effect on agonist-induced cytosolic Ca2+ ion mobilization using a fluorimetric detection method.
The cells were suspended in DMEM buffer (Invitrogen), then distributed in microplates at a density of 1.10^4 cells/well. The fluorescent probe (Fluo4 NW, Invitrogen) mixed with probenicid in HBSS buffer (Invitrogen) complemented with 20 mM Hepes (Invitrogen) (pH 7.4) was then added into each well and equilibrated with the cells for 60 min at 37° C. then 15 min at 22° C. Thereafter, the assay plates were positioned in a microplate reader (CellLux, PerkinElmer) which was used for the addition of the test compound, reference antagonist or HBSS buffer then 5 min later 3 nM [Sar9,Met(O2)11]-SP or HBSS buffer (basal control), and the measurements of changes in fluorescence intensity which varies proportionally to the free cytosolic Ca2+ ion concentration.
The compounds, dissolved in DMSO and diluted in the medium, have been analysed in the 1 nM-1 μM concentration range (every concentration in duplicate). The antagonistic activity vs receptor NK1 of invention compounds has been expressed as pKb (co-logarithm of the apparent dissociation constant calculated by using the modified Cheng Prusoff equation) or alternatively as a percent of inhibition of the control response to 3 nM [Sar^9,Met(O2)^11]-SP at a compound concentration of 10 μM.
The standard reference antagonist was L 733,060, which was tested in each experiment at several concentrations to generate a concentration-response curve from which its IC50 value is calculated. • Bibliographic reference: EISTETTER, H. R., MILLS, A., BREWSTER, R., ALOUANI, S., RAMBOSSON, C. and KAWASHIMA, E. (1992), Functional characterization of neurokinin-1 receptor on human U373MG astrocytoma cells, Glia, 6: 89.

T1 sequence (P25103 whole entry): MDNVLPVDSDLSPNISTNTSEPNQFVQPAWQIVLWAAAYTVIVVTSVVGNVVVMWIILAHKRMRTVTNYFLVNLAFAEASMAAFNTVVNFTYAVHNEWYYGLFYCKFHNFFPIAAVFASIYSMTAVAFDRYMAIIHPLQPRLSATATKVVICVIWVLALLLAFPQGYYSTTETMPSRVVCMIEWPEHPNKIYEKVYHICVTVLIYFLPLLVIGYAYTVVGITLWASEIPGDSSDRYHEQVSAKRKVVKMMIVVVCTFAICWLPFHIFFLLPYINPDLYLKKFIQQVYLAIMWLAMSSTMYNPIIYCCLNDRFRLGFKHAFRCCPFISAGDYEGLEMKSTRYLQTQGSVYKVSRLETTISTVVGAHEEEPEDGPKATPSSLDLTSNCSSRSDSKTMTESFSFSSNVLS

Compound: O=C(c1cc(Cl)ccc1-c1ncccn1)N1CCC2(CC2)C[C@H]1CNc1ccc(Cl)cn1 [Compound 1, (S)-(5-chloro-2-(pyrimidin-2-yl)phenyl)(5-(((5-chloropyridin-2-yl)amino)methyl)-6-azaspiro[2.5]octan-6-yl)methanone]
- Kb: 2.51 nM

Compound: Cc1ccc(-c2ccccn2)c(C(=O)N2CCC3(CC3)C[C@H]2CNc2ccc(Cl)cn2)c1 [Compound 2, (S)-(5-(((5-chloropyridin-2-yl)amino)methyl)-6-azaspiro[2.5]octan-6-yl)(5-methyl-2-(pyridin-2-yl)phenyl)methanone]
- inhibition at 10 µM: 87%

Compound: O=C(c1cc(F)ccc1-c1ccccn1)N1CCC2(CC2)C[C@H]1CNc1ccc(Cl)cn1 [Compound 3, (S)-(5-(((5-chloropyridin-2-yl)amino)methyl)-6-azaspiro[2.5]octan-6-yl)(5-fluoro-2-(pyridin-2-yl)phenyl)methanone]
- inhibition at 10 µM: 65%

Compound: O=C(c1cc(F)ccc1-n1nccn1)N1CCC2(CC2)C[C@H]1CNc1ccc(Cl)cn1 [Compound 4, (S)-(5-(((5-chloropyridin-2-yl)amino)methyl)-6-azaspiro[2.5]octan-6-yl)(5-fluoro-2-(2H-1,2,3-triazol-2-yl)phenyl)methanone]
- inhibition at 10 µM: 61%

Compound: Cc1ccc(-n2nccn2)c(C(=O)N2CCC3(CC3)C[C@H]2CNc2ccc(C(F)(F)F)cn2)c1 [Compound 5, (S)-(5-methyl-2-(2H-1,2,3-triazol-2-yl)phenyl)(5-(((5-(trifluoromethyl)pyridin-2-yl)amino)methyl)-6-azaspiro[2.5]octan-6-yl)methanone]
- inhibition at 10 µM: 67%

Compound: Cc1ccc(-n2nccn2)c(C(=O)N2CCC3(CC3)C[C@H]2CNc2ccc(Cl)cn2)c1 [Compound 6, (S)(5-((5-chloropyridin-2-ylamino)methyl)-6-azaspiro[2.5]octan-6-yl)(5-methyl-2-(2H-1,2,3-triazol-2-yl)phenyl)methanone]
- inhibition at 10 µM: 61%

Compound: Cc1ccc(-c2ncccn2)c(C(=O)N2CCC3(CC3)C[C@H]2CNc2ccc(C(F)(F)F)cn2)c1 [Compound 7, (S)-(5-methyl-2-(pyrimidin-2-yl)phenyl)(5-(((5-(trifluoromethyl)pyridin-2-yl)amino)methyl)-6-azaspiro[2.5]octan-6-yl)methanone]
- inhibition at 10 µM: 87%

Compound: Cc1ccc(-c2ncccn2)c(C(=O)N2CCC3(CC3)C[C@H]2CNc2ccc(Cl)cn2)c1 [Compound 8, (S)-(5-(((5-chloropyridin-2-yl)amino)methyl)-6-azaspiro[2.5]octan-6-yl)(5-methyl-2-(pyrimidin-2-yl)phenyl)methanone]
- Kb: 5.01 nM

Compound: O=C(c1cc(F)ccc1-c1ncccn1)N1CCC2(CC2)C[C@H]1CNc1ccc(Cl)cn1 [Compound 9, (S)-(5-(((5-chloropyridin-2-yl)amino)methyl)-6-azaspiro[2.5]octan-6-yl)(5-fluoro-2-(pyrimidin-2-yl)phenyl)methanone]
- Kb: 2.51 nM
